Laboratory results taken from patent publication US10456339B2, “Organic hydroperoxide reduction in perfumery raw materials” (FIRMENICH SA, priority 2017, dated 2019).

Legend:
[1] = POV of model perfume treated with AKG-mono(DiMeC12A); details: 1.0% w/v; within 26 hours after the addition
Procedure: A model perfume was made using 90/10 v/v ethanol/water as a solvent, and a mixture of orange, grapefruit, and bergamot oils as the perfume oil. The mixed citrus oil was loaded into the solvent at approximately 19.4% v/v (6 mL oil into 25 mL solvent). Approximately 200 mg (1.0% w/v) of the AKG-monoMeC12A salt was dissolved in 20 mL of the mixed citrus perfume, and POV measurements were taken as a function of time after the addition. An untreated perfume sample was handled similarly to the treated perfume and also tested, because the POV can rise rapidly with handling of the sample (opening the bottle, agitation, etc.).

[2] = Surface tension of aqueous solution, pendant drop method; format: physicochemical; details: 0.14 weight % solution in water; pure water 71.57 mN/m
Procedure: The measurement was made on a Kruss DSA100S Tensiometer by the pendant drop method. […] This concentration was chosen so the results could be compared to the literature value for known surfactant sodium dodecyl sulfate (SDS) at 5 mM, which is approximately 0.15 weight %.

[3] = 0.3358 g in 15 mL sunflower oil; 23 days; indistinguishable from BLANK

Row | Compound | reduction in the POV [1] | surface tension [2] | POV of treated oil [3]
1 | CCCCCCCCCCCCN(C)C.O=C(O)CCC(=O)C(=O)O [AKG-mono(DiMeC12A)] | total and complete reduction | 32.93 mN/m | –
2 | CCCCCCCCCCN(C)C.O=C(O)C(=O)c1ccco1 [FAA-DiMeC10A] | – | – | 0.00 mmol/L
